Source: US10405547B2, “Substituted cyclic amides as herbicides” (FMC Corporation, priority 2015, dated 2019)

What was measured:
Assay type in all cases: in vivo
[1] = test system: galium (catchweed bedstraw, Galium aparine); test: Test A postemergence, galium; details: visual injury, 0 to 100 scale (0 no effect, 100 complete control), approximately 10 days
Procedure, shortened: (§1)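 Greenhouse test: compounds in solvent with surfactant sprayed onto loam–sand soil after planting (preemergence) or onto plants 2-10 cm at the one- to two-leaf stage (postemergence). Injury visually rated versus untreated controls after about 10 days on a 0-100 scale (100 = complete control).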

[2] = test system: ryegrass, Italian (Lolium multiflorum); test: Test A preemergence, Italian ryegrass; details: 0 to 100 scale (0 no effect, 100 complete control)
Procedure, shortened: as §1

[3] = test system: blackgrass (Alopecurus myosuroides); test: Test A postemergence, blackgrass; details: visual injury, 0 to 100 scale (0 no effect, 100 complete control), approximately 10 days
Procedure, shortened: as §1

[4] = test system: foxtail, giant (Setaria faberii); test: Test A preemergence, giant foxtail; details: 0 to 100 scale (0 no effect, 100 complete control)
Procedure, shortened: as §1

[5] = test system: ragweed (common ragweed, Ambrosia elatior); test: Test A postemergence, ragweed; details: visual injury, 0 to 100 scale (0 no effect, 100 complete control), approximately 10 days
Procedure, shortened: as §1

corn (Zea mays) = test: Test A postemergence, corn; details: visual injury, 0 to 100 scale (0 no effect, 100 complete control), approximately 10 days
Procedure, shortened: as §1

kochia (Kochia scoparia) [6] = test: Test A preemergence, kochia; details: 0 to 100 scale (0 no effect, 100 complete control)
Procedure, shortened: as §1

[7] = test system: foxtail, giant (Setaria faberii); test: Test A postemergence, giant foxtail; details: visual injury, 0 to 100 scale (0 no effect, 100 complete control), approximately 10 days
Procedure, shortened: as §1

[8] = test system: sedge, umbrella (small-flower umbrella sedge, Cyperus difformis); test: Test B flooded paddy test, umbrella sedge; details: applied to paddy water, visual rating after 13 to 15 days, scale 0 (no effect) to 100 (complete control)
Excerpt: (§2) At time of treatment, test pots were flooded to 3 cm above the soil surface, treated by application of test compounds directly to the paddy water, and then maintained at that water depth for the duration of the test. Treated plants and controls were maintained in a greenhouse for 13 to 15 days, after which time all species were compared to controls and visually evaluated. […] A dash (-) response means no test result.

[9] = test system: barnyardgrass (Echinochloa crus-galli); test: Test A postemergence, barnyardgrass; details: visual injury, 0 to 100 scale (0 no effect, 100 complete control), approximately 10 days
Procedure, shortened: as §1

rice (Oryza sativa) = test: Test B flooded paddy test, rice; details: applied to paddy water, visual rating after 13 to 15 days, scale 0 (no effect) to 100 (complete control)
Excerpt: as §2

[10] = test system: wheat (Triticum aestivum); test: Test A postemergence, wheat; details: visual injury, 0 to 100 scale (0 no effect, 100 complete control), approximately 10 days
Procedure, shortened: as §1

[11] = test system: pigweed (Amaranthus retroflexus); test: Test A postemergence, pigweed; details: visual injury, 0 to 100 scale (0 no effect, 100 complete control), approximately 10 days
Procedure, shortened: as §1

[12] = test system: barnyardgrass (Echinochloa crus-galli); test: Test A preemergence, barnyardgrass; details: 0 to 100 scale (0 no effect, 100 complete control)
Procedure, shortened: as §1

kochia (Kochia scoparia) [13] = test: Test A postemergence, kochia; details: visual injury, 0 to 100 scale (0 no effect, 100 complete control), approximately 10 days
Procedure, shortened: as §1

[14] = test system: ducksalad (Heteranthera limosa); test: Test B flooded paddy test, ducksalad; details: applied to paddy water, visual rating after 13 to 15 days, scale 0 (no effect) to 100 (complete control)
Excerpt: as §2

[15] = test system: pigweed (Amaranthus retroflexus); test: Test A preemergence, pigweed; details: 0 to 100 scale (0 no effect, 100 complete control)
Procedure, shortened: as §1

[16] = test system: ryegrass, Italian (Lolium multiflorum); test: Test A postemergence, Italian ryegrass; details: visual injury, 0 to 100 scale (0 no effect, 100 complete control), approximately 10 days
Procedure, shortened: as §1

[17] = test system: barnyardgrass (Echinochloa crus-galli); test: Test B flooded paddy test, barnyardgrass; details: applied to paddy water, visual rating after 13 to 15 days, scale 0 (no effect) to 100 (complete control)
Excerpt: as §2

[18] = test system: ragweed (common ragweed, Ambrosia elatior); test: Test A preemergence, ragweed; details: 0 to 100 scale (0 no effect, 100 complete control)
Procedure, shortened: as §1

O=C1NCC(c2cccc(OCc3ccco3)c2)C1C(=O)Nc1ccccc1C(F)(F)F (stereo not drawn) [Compound 2]
0: Plant response rating, Galium ([1]; 125 g ai/ha) | Plant response rating, Galium ([1]; 500 g ai/ha) | Plant response rating, Ryegrass, Italian ([2]; 125 g ai/ha) | Plant response rating, Ryegrass, Italian ([2]; 500 g ai/ha) | Plant response rating, Blackgrass ([3]; 125 g ai/ha) | Plant response rating, Blackgrass ([3]; 500 g ai/ha) | Plant response rating, Foxtail, Giant ([4]; 125 g ai/ha) | Plant response rating, Ragweed ([5]; 125 g ai/ha) | Plant response rating, Ragweed ([5]; 500 g ai/ha) | Plant response rating, Corn (corn (Zea mays); 125 g ai/ha) | Plant response rating, Corn (corn (Zea mays); 500 g ai/ha) | Plant response rating, Kochia (kochia (Kochia scoparia) [6]; 125 g ai/ha) | Plant response rating, Kochia (kochia (Kochia scoparia) [6]; 500 g ai/ha) | Plant response rating, Foxtail, Giant ([7]; 125 g ai/ha) | Plant response rating, Sedge, Umbrella (Flood) ([8]; 250 g ai/ha) | Plant response rating, Barnyardgrass ([9]; 125 g ai/ha) | Plant response rating, Barnyardgrass ([9]; 500 g ai/ha) | Plant response rating, Rice (Flood) (rice (Oryza sativa); 250 g ai/ha) | Plant response rating, Wheat ([10]; 125 g ai/ha) | Plant response rating, Wheat ([10]; 500 g ai/ha) | Plant response rating, Pigweed ([11]; 125 g ai/ha) | Plant response rating, Pigweed ([11]; 500 g ai/ha) | Plant response rating, Barnyardgrass ([12]; 125 g ai/ha) | Plant response rating, Kochia (kochia (Kochia scoparia) [13]; 125 g ai/ha) | Plant response rating, Kochia (kochia (Kochia scoparia) [13]; 500 g ai/ha) | Plant response rating, Ducksalad (Flood) ([14]; 250 g ai/ha) | Plant response rating, Pigweed ([15]; 125 g ai/ha) | Plant response rating, Pigweed ([15]; 500 g ai/ha) | Plant response rating, Ryegrass, Italian ([16]; 125 g ai/ha) | Plant response rating, Barnyardgrass (Flood) ([17]; 250 g ai/ha) | Plant response rating, Ragweed ([18]; 125 g ai/ha) | Plant response rating, Ragweed ([18]; 500 g ai/ha)
30: Plant response rating, Barnyardgrass ([12]; 500 g ai/ha)
20: Plant response rating, Foxtail, Giant ([4]; 500 g ai/ha)
10: Plant response rating, Foxtail, Giant ([7]; 500 g ai/ha) | Plant response rating, Ryegrass, Italian ([16]; 500 g ai/ha)

O=C1NCC(c2cccc(OCc3ccco3)c2)C1C(=O)Nc1cccc(F)c1F (stereo not drawn) [Compound 9]
50: Plant response rating, Foxtail, Giant ([7]; 500 g ai/ha)
70: Plant response rating, Foxtail, Giant ([4]; 500 g ai/ha) | Plant response rating, Barnyardgrass ([12]; 500 g ai/ha)
10: Plant response rating, Foxtail, Giant ([4]; 125 g ai/ha) | Plant response rating, Barnyardgrass ([12]; 125 g ai/ha)
60: Plant response rating, Barnyardgrass ([9]; 500 g ai/ha)
20: Plant response rating, Corn (corn (Zea mays); 500 g ai/ha)
0: Plant response rating, Galium ([1]; 125 g ai/ha) | Plant response rating, Galium ([1]; 500 g ai/ha) | Plant response rating, Ryegrass, Italian ([2]; 125 g ai/ha) | Plant response rating, Ryegrass, Italian ([2]; 500 g ai/ha) | Plant response rating, Blackgrass ([3]; 125 g ai/ha) | Plant response rating, Blackgrass ([3]; 500 g ai/ha) | Plant response rating, Ragweed ([5]; 125 g ai/ha) | Plant response rating, Ragweed ([5]; 500 g ai/ha) | Plant response rating, Corn (corn (Zea mays); 125 g ai/ha) | Plant response rating, Kochia (kochia (Kochia scoparia) [6]; 125 g ai/ha) | Plant response rating, Kochia (kochia (Kochia scoparia) [6]; 500 g ai/ha) | Plant response rating, Foxtail, Giant ([7]; 125 g ai/ha) | Plant response rating, Rice (Flood) (rice (Oryza sativa); 250 g ai/ha) | Plant response rating, Wheat ([10]; 125 g ai/ha) | Plant response rating, Wheat ([10]; 500 g ai/ha) | Plant response rating, Pigweed ([11]; 125 g ai/ha) | Plant response rating, Pigweed ([11]; 500 g ai/ha) | Plant response rating, Kochia (kochia (Kochia scoparia) [13]; 125 g ai/ha) | Plant response rating, Kochia (kochia (Kochia scoparia) [13]; 500 g ai/ha) | Plant response rating, Pigweed ([15]; 125 g ai/ha) | Plant response rating, Pigweed ([15]; 500 g ai/ha) | Plant response rating, Ryegrass, Italian ([16]; 125 g ai/ha) | Plant response rating, Ryegrass, Italian ([16]; 500 g ai/ha) | Plant response rating, Barnyardgrass (Flood) ([17]; 250 g ai/ha) | Plant response rating, Ragweed ([18]; 125 g ai/ha) | Plant response rating, Ragweed ([18]; 500 g ai/ha)
30: Plant response rating, Sedge, Umbrella (Flood) ([8]; 250 g ai/ha) | Plant response rating, Barnyardgrass ([9]; 125 g ai/ha) | Plant response rating, Ducksalad (Flood) ([14]; 250 g ai/ha)

O=C1NCC(c2cccc(Oc3ccccn3)c2)C1C(=O)Nc1ccccc1F (stereo not drawn) [Compound 34, N-(2-Fluorophenyl)-2-oxo-4-[3-(2-pyridinyloxy)phenyl]-3-pyrrolidinecarboxamide]
85: Plant response rating, Ducksalad (Flood) ([14]; 500 g ai/ha)
60: Plant response rating, Barnyardgrass ([9]; 500 g ai/ha)
80: Plant response rating, Foxtail, Giant ([7]; 500 g ai/ha)
70: Plant response rating, Foxtail, Giant ([4]; 125 g ai/ha)
30: Plant response rating, Foxtail, Giant ([7]; 125 g ai/ha) | Plant response rating, Barnyardgrass ([9]; 125 g ai/ha) | Plant response rating, Ryegrass, Italian ([16]; 500 g ai/ha)
50: Plant response rating, Galium ([1]; 500 g ai/ha)
20: Plant response rating, Galium ([1]; 125 g ai/ha) | Plant response rating, Blackgrass ([3]; 500 g ai/ha) | Plant response rating, Barnyardgrass ([12]; 125 g ai/ha) | Plant response rating, Barnyardgrass (Flood) ([17]; 500 g ai/ha)
0: Plant response rating, Ryegrass, Italian ([2]; 125 g ai/ha) | Plant response rating, Ryegrass, Italian ([2]; 500 g ai/ha) | Plant response rating, Blackgrass ([3]; 125 g ai/ha) | Plant response rating, Ragweed ([5]; 125 g ai/ha) | Plant response rating, Ragweed ([5]; 500 g ai/ha) | Plant response rating, Corn (corn (Zea mays); 125 g ai/ha) | Plant response rating, Corn (corn (Zea mays); 500 g ai/ha) | Plant response rating, Kochia (kochia (Kochia scoparia) [6]; 125 g ai/ha) | Plant response rating, Kochia (kochia (Kochia scoparia) [6]; 500 g ai/ha) | Plant response rating, Sedge, Umbrella (Flood) ([8]; 500 g ai/ha) | Plant response rating, Rice (Flood) (rice (Oryza sativa); 500 g ai/ha) | Plant response rating, Wheat ([10]; 125 g ai/ha) | Plant response rating, Wheat ([10]; 500 g ai/ha) | Plant response rating, Pigweed ([11]; 125 g ai/ha) | Plant response rating, Pigweed ([11]; 500 g ai/ha) | Plant response rating, Kochia (kochia (Kochia scoparia) [13]; 125 g ai/ha) | Plant response rating, Kochia (kochia (Kochia scoparia) [13]; 500 g ai/ha) | Plant response rating, Pigweed ([15]; 125 g ai/ha) | Plant response rating, Pigweed ([15]; 500 g ai/ha) | Plant response rating, Ryegrass, Italian ([16]; 125 g ai/ha) | Plant response rating, Ragweed ([18]; 125 g ai/ha) | Plant response rating, Ragweed ([18]; 500 g ai/ha)
90: Plant response rating, Foxtail, Giant ([4]; 500 g ai/ha) | Plant response rating, Barnyardgrass ([12]; 500 g ai/ha)
